The values below come from ChEMBL document CHEMBL4308826, “Small Molecule Allosteric Modulators of G-Protein-Coupled Receptors: Drug-Target Interactions” (J Med Chem, 2018).

In assay [1] the target is T1, Proteinase-activated receptor 2 (Homo sapiens, UniProt P55085).
T1 sequence (P55085 whole entry): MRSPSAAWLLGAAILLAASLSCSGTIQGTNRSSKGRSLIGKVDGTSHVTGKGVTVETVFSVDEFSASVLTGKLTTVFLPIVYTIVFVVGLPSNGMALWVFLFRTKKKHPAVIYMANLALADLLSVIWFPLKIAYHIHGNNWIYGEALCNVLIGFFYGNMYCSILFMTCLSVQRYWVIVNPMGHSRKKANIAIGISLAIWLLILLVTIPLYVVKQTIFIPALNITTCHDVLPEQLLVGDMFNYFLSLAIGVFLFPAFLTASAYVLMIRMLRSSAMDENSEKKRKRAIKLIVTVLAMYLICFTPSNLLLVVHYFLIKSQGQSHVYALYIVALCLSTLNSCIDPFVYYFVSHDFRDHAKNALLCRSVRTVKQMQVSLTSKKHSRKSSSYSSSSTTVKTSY
As to the kind of experiment: Antagonist activity at human PAR2.

Assay [2] concerns the target T2, Proteinase-activated receptor 1 (Homo sapiens, UniProt P25116).
T2 sequence (P25116 whole entry): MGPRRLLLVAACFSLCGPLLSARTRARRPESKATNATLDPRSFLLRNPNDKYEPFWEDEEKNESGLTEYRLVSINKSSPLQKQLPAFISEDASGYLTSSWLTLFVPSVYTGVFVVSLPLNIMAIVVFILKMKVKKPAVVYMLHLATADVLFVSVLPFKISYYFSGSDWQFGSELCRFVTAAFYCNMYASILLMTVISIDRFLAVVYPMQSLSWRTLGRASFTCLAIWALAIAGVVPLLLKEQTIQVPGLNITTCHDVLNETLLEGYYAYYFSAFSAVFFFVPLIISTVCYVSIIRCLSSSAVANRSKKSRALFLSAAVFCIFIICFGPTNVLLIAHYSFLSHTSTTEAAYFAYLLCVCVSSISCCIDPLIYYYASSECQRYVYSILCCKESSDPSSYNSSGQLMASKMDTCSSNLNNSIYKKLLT
As to the kind of experiment: Antagonist activity at human PAR1.

For assay [3], the target named is T3, Proteinase-activated receptor 4 (Homo sapiens, UniProt Q96RI0).
T3 sequence (Q96RI0 whole entry): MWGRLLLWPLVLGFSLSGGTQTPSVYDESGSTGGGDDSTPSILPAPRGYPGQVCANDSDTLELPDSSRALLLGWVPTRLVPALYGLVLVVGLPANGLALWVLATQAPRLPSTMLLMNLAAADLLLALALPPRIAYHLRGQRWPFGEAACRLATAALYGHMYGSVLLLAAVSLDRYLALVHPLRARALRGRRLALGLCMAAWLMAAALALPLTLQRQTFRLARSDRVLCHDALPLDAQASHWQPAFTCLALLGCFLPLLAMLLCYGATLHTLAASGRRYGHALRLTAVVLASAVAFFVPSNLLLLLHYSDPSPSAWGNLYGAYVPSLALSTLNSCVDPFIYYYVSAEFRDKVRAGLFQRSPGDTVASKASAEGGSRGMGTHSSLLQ
Kind of assay: Antagonist activity at human PAR4.

Usually IC50 stands for the concentration that inhibits the measured activity by half. The low end stands for inhibition by little substance, the high end for a need for much substance. `C[C@@H](C1CCCCC1)n1c(-c2cc3c(cc2Br)OCO3)nc2cc(C(=O)Nc3ccc(C#N)cc3)ccc21`: the IC50 in assay [1] was below 0.0025 µM; in assay [2], above 50 µM; in assay [3], 0.38 µM.
